Data on 1 compound can be found in patent EP0638125B1, “AC[…] A PRODUCER OF RAPAMYCIN” (PFIZER INC., priority 1992, dated 1993).

Type in all cases: cell-based
Series [1] deals with mixed lymphocyte reaction (MLR). Kind of series: mixed lymphocyte reaction (MLR), standard procedure (Dubey et al.). Conditions: read-out: IC₅₀ values of MLR. From the text: (§1) The IC₅₀ values (µg/ml) of MLR and cytotoxicity for rapamycin were 7 x 10⁻³ and >3.0, respectively when tested by standard procedures for MLR (D. P. Dubey et al., Manual of Clinical Laboratory Immunology, 3rd Ed., pp. 847-858, 1986) and for cytotoxicity (T. Mosmann, J., J. Immunol. Methods, 65, 55-63, 1983).

The subject of another series is Candida albicans. Nature of the series: antifungal activity, agar plate dilution method with paper disk. The following applies: 40 µg/disk, 8 mm diameter paper disk, agar medium for neomycin assay (Difco). As to the method: Antifungal activity was determined by an agar plate dilution method using a fungal culture, Candida albicans. The diameter of inhibition zone of rapamycin was 25 mm when tested at 40 µg/disk (8 mm diameter paper disk, Advantic) on an commercially available agar medium for neomycin assay (Difco).

Series [2] can be described thus: cytotoxicity, standard procedure (Mosmann).
Description: as §1

Values after ≈ are worked out from the molar mass of the structure shown.

A word on the zone of inhibition: it is the size of the clear area around the sample on an inoculated plate. Usually CC50 stands for the concentration that lowers cell viability or growth by half. High values mean lower toxicity to the cells, low ones greater toxicity to the cells. For the compound `CO[C@H]1C[C@@H]2CC[C@@H](C)[C@@](O)(O2)C(=O)C(=O)N2CCCC[C@H]2C(=O)O[C@H]([C@H](C)C[C@@H]2CC[C@@H](O)[C@H](OC)C2)CC(=O)[C@H](C)/C=C(\C)[C@@H](O)[C@@H](OC)C(=O)[C@H](C)C[C@H](C)/C=C/C=C/C=C/1C` [rapamycin], the IC50 in series [1] was found to be 7 ng/mL (≈ 7.66 nM). In the series on Candida albicans, this compound yielded a zone of inhibition at 40 µg/disc of 25 mm. The same compound registered a CC50 in series [2] greater than 3000 ng/mL.
